Experimental data: ChEMBL document CHEMBL1146773, “Synthesis of dammarane-type triterpenoids with anti-inflammatory activity in vivo” (2004)

Columns and labels:
Type in all cases: functional
Mus musculus [1] = test: In vivo anti-inflammatory activity determined by inhibition of oxazolone-induced allergic contact dermatitis (ACD) in mouse up on tropical application; set-up: concentration or dose not given beside the values
Mus musculus [2] = test: In vivo antiinflammatory activity of 0.4 uM concentration of compound was determined by inhibition of oxazolone-induced allergic contact dermatitis (ACD) in mouse up on tropical application
Mus musculus [3] = test: In vivo antiinflammatory activity of 4 uM concentration of compound was determined by inhibition of oxazolone-induced allergic contact dermatitis (ACD) in mouse up on tropical application
Mus musculus [4] = test: In vivo antiinflammatory activity of 40 uM concentration of compound was determined by inhibition of oxazolone-induced allergic contact dermatitis (ACD) in mouse up on tropical application
Sus scrofa [5] = test: In vivo antiinflammatory activity of 130 uM concentration of compound was determined by inhibition of oxazolone-induced allergic contact dermatitis (ACD) in pig up on tropical application
Sus scrofa [6] = test: In vivo antiinflammatory activity of 40 uM concentration of compound was determined by inhibition of oxazolone-induced allergic contact dermatitis (ACD) in pig up on tropical application
Mus musculus [7] = test: In vivo antiinflammatory activity of 0.04 uM concentration of compound was determined by inhibition of oxazolone-induced allergic contact dermatitis (ACD) in mouse up on tropical application
Mus musculus [8] = test: In vivo antiinflammatory activity of compound was determined by inhibition of oxazolone-induced allergic contact dermatitis (ACD) in mouse up on tropical application
Sus scrofa [9] = test: In vivo antiinflammatory activity of 400 uM concentration of compound was determined by inhibition of oxazolone-induced allergic contact dermatitis (ACD) in pig up on tropical application

SMILES | Inhibition (Mus musculus [1]) | further results
CCCCNC(C)[C@H]1CC[C@]2(C)[C@@H]1CC[C@H]1[C@H]2CC[C@H]2C(C)(C)[C@@H](O)CC[C@]12C (stereo in doubt; 4aA) | 30% | –
CC1(C)[C@@H](O)CC[C@]2(C)[C@H]3CC[C@@H]4[C@@H](C(N)CCc5ccccc5)CC[C@@]4(C)[C@@H]3CC[C@@H]12 (stereo in doubt; 13B) | 6% | –
CC(CCc1ccccc1)[C@H]1CC[C@]2(C)[C@@H]1CC[C@H]1[C@H]2CC[C@H]2C(C)(C)[C@@H](O)CC[C@]12C (stereo in doubt; 15A) | 30% | –
C[C@H](N)[C@H]1CC[C@]2(C)[C@@H]1CC[C@H]1[C@H]2CC[C@H]2C(C)(C)[C@@H](O)CC[C@]12C (stereo in doubt; 5A) | 38% | –
CC1(C)[C@@H](O)CC[C@]2(C)[C@H]3CC[C@@H]4[C@@H](C(N)CCc5ccccc5)CC[C@@]4(C)[C@@H]3CC[C@@H]12 (stereo in doubt; 13A) | 30% | –
C=C(CCc1ccccc1)[C@H]1CC[C@]2(C)[C@@H]1CC[C@H]1[C@H]2CC[C@H]2C(C)(C)[C@@H](O)CC[C@]12C | 36% | –
CC1(C)[C@@H](O)CC[C@]2(C)[C@H]3CC[C@@H]4[C@@H](C(CCc5ccccc5)NCc5ccccc5)CC[C@@]4(C)[C@@H]3CC[C@@H]12 (stereo in doubt; 12A) | 22% | –
CC(NCCc1ccccc1-n1ccnc1)[C@H]1CC[C@]2(C)[C@@H]1CC[C@H]1[C@H]2CC[C@H]2C(C)(C)[C@@H](O)CC[C@]12C (stereo not given in full) | 13% | –
CC(C)CCC(=O)N[C@@H](C)[C@H]1CC[C@]2(C)[C@@H]1CC[C@H]1[C@H]2CC[C@H]2C(C)(C)[C@@H](O)CC[C@]12C | 33% | –
CC(CCc1ccccc1)[C@H]1CC[C@]2(C)[C@@H]1CC[C@H]1[C@H]2CC[C@H]2C(C)(C)[C@@H](O)CC[C@]12C (stereo in doubt; 15B) | 29% | –
CCCCNC(C)[C@H]1CC[C@]2(C)[C@@H]1CC[C@H]1[C@H]2CC[C@H]2C(C)(C)[C@@H](O)CC[C@]12C (stereo in doubt; 4aB) | 28% | –
CC(NCc1ccccc1)[C@H]1CC[C@]2(C)[C@@H]1CC[C@H]1[C@H]2CC[C@H]2C(C)(C)[C@@H](O)CC[C@]12C (stereo in doubt; 4bA) | 28% | –
CC(NCCc1ccc(S(N)(=O)=O)cc1)[C@H]1CC[C@]2(C)[C@@H]1CC[C@H]1[C@H]2CC[C@H]2C(C)(C)[C@@H](O)CC[C@]12C (stereo not given in full) | 16% | –
C[C@H](N)[C@H]1CC[C@]2(C)[C@@H]1CC[C@H]1[C@H]2CC[C@H]2C(C)(C)[C@@H](O)CC[C@]12C (stereo in doubt; 5B) | 41% | –
CC(NCC(=O)OC(C)(C)C)[C@H]1CC[C@]2(C)[C@@H]1CC[C@H]1[C@H]2CC[C@H]2C(C)(C)[C@@H](O)CC[C@]12C (stereo in doubt; 4dB) | 21% | –
CC(NCc1nc2ccccc2[nH]1)[C@H]1CC[C@]2(C)[C@@H]1CC[C@H]1[C@H]2CC[C@H]2C(C)(C)[C@@H](O)CC[C@]12C (stereo not given in full) | 27% | –
CC(NCc1ccccc1)[C@H]1CC[C@]2(C)[C@@H]1CC[C@H]1[C@H]2CC[C@H]2C(C)(C)[C@@H](O)CC[C@]12C (stereo in doubt; 4bB) | 15% | –
CC(=O)[C@H]1CC[C@]2(C)[C@@H]1CC[C@@H]1[C@@]3(C)CC[C@H](O)C(C)(C)[C@@H]3CC[C@]12C | 12% | –
C[C@H](NC(=O)/C=C/c1ccccc1)[C@H]1CC[C@]2(C)[C@@H]1CC[C@H]1[C@H]2CC[C@H]2C(C)(C)[C@@H](O)CC[C@]12C | 11% | –
C=C(C/C=C/C(C)(C)O)[C@@H]1CC[C@]2(C)[C@@H]1CC[C@@H]1[C@@]3(C)CC[C@H](O)C(C)(C)[C@@H]3CC[C@]12C | – | Inhibition (Mus musculus [2]): 6%; Inhibition (Mus musculus [3]): 37%; Inhibition (Mus musculus [4]): 65%; Inhibition (Sus scrofa [5]): 43%; Inhibition (Sus scrofa [6]): 28%
CC1(C)[C@@H](O)CC[C@]2(C)[C@H]3CC[C@@H]4[C@@H](C(O)CCc5ccccc5)CC[C@@]4(C)[C@@H]3CC[C@@H]12 (stereo in doubt; 11A) | 12% | –
CC1(C)[C@@H](O)CC[C@]2(C)[C@H]3CC[C@@H]4[C@@H](C(CCc5ccccc5)NCc5ccccc5)CC[C@@]4(C)[C@@H]3CC[C@@H]12 (stereo in doubt; 12B) | 15% | –
CC1(C)[C@@H](O)CC[C@]2(C)[C@H]3CC[C@@H]4[C@@H](C(O)CCc5ccccc5)CC[C@@]4(C)[C@@H]3CC[C@@H]12 (stereo in doubt; 11B) | 14% | –
C[C@@H]1C[C@H]2[C@@H]3CCC4=CC(=O)C=C[C@]4(C)[C@@]3(F)[C@@H](O)C[C@]2(C)[C@@]1(O)C(=O)CO [DEXAMETHASONE] | – | Inhibition (Mus musculus [7]): 16%; Inhibition (Mus musculus [2]): 41%; Inhibition (Mus musculus [4]): 35%; Inhibition (Mus musculus [8]): 42%; Inhibition (Sus scrofa [5]): 35%; Inhibition (Sus scrofa [6]): 20%; Inhibition (Sus scrofa [9]): 32%
CC(NCC(=O)OC(C)(C)C)[C@H]1CC[C@]2(C)[C@@H]1CC[C@H]1[C@H]2CC[C@H]2C(C)(C)[C@@H](O)CC[C@]12C (stereo in doubt; 4dA) | 31% | –
